# Reference: patent US7767659B2, “Synthesis of naturally occurring ecteinascidins and related compounds” (Pharma Mar, S.A., priority 2002, dated 2010)
# How the values were obtained:
# K-562 = assay: Inhibition of cells growth by colorimetric assay (SRB); conditions: Homo sapiens, K562, 48 h
# Method: (§1) This form of the assay employs 96 well cell culture microplates of 9 mm diameter (Faircloth, 1988; Mosmann, 1983). Most of the cell lines are obtained from American Type Culture Collection (ATCC) derived from different human cancer types.
# (§2) Cells are maintained in RPMI 1640 10% FBS, supplemented with 0.1 g/l penicillin and 0.1 g/l streptomycin sulfate and then incubated at 37° C., 5% CO2 and 98% humidity. For the experiments, cells were harvested from subconfluent cultures using trypsin and resuspended in fresh medium before plating.
# (§3) Cells are seeded in 96 well microtiter plates, at 5×10^3 cells per well in aliquots of 195 μl medium, and they are allowed to attach to the plate surface by growing in drug free medium for 18 hours. Afterward, samples are added in aliquots of 5 μl in a ranging from 10 to 10^−8 μg/ml, dissolved in DMSO/EtOH/PBS (0.5:0.5:99). After 48 hours exposure, the antitumor effect are measured by the SRB methodology: cells are fixed by adding 50 μl of cold 50% (wt/vol) trichloroacetic acid (TCA) and incubating for 60 minutes at 4° C. Plates are washed with deionized water and dried. One hundred μl of SRB solution (0.4% wt/vol in 1% acetic acid) is added to each microtiter well and incubated for 10 minutes at room temperature. Unbound SRB is removed by washing with 1% acetic acid. Plates are air dried and bound stain is solubilzed with Tris buffer. Optical densities are read on a automated spectrophotometric plate reader at a single wavelength of 490 nm.
# (§4) The values for mean +/− SD of data from triplicate wells are calculated. Some parameters for cellular responses can be calculated: GI=growth inhibition, TGI=total growth inhibition (cytostatic effect) and LC=cell killing (cytotoxic effect).
# SK-BR-3 = assay: as above; conditions: Homo sapiens, SK-BR-3, 48 h
# Method: as §1, §2, §3, §4
# DU-145 = assay: as above; conditions: Homo sapiens, DU-145, 48 h
# Method: as §1, §2, §3, §4
# LoVo-Dox = assay: as above; conditions: Homo sapiens, 48 h
# Method: as §1, §2, §3, §4
# HeLa-APL = assay: as above; conditions: Homo sapiens, 48 h
# Method: as §1, §2, §3, §4
# IGROV-ET = assay: as above; conditions: Homo sapiens, 48 h
# Method: as §1, §2, §3, §4
# HeLa = assay: as above; conditions: Homo sapiens, HeLa, 48 h
# Method: as §1, §2, §3, §4
# IGROV-1 = assay: as above; conditions: Homo sapiens, IGROV-1, 48 h
# Method: as §1, §2, §3, §4
# PANC-1 = assay: as above; conditions: Homo sapiens, PANC-1, 48 h
# Method: as §1, §2, §3, §4
# LNCaP = assay: as above; conditions: Homo sapiens, LNCaP, 48 h
# Method: as §1, §2, §3, §4
# SK-MEL-28 = assay: as above; conditions: Homo sapiens, SK-MEL-28, 48 h
# Method: as §1, §2, §3, §4
# HT-29 = assay: cells; conditions: Homo sapiens, HT-29, 48 h
# Method: as §1, §2, §3, §4
# A-549 = assay: cells; conditions: Homo sapiens, A549, 48 h
# Method: as §1, §2, §3, §4
# LoVo = assay: cells; conditions: Homo sapiens, LoVo, 48 h
# Method: as §1, §2, §3, §4
smiles,measurement,setting,value
COc1c(C)cc2c(c1O)[C@H]1N[C@@H](C2)[C@H](O)N2C1[C@@H]1SC[C@]3(NCCc4c3[nH]c3ccc(O)cc43)C(=O)OC[C@H]2c2c3c(c(C)c(OC(C)=O)c21)OCO3 (stereo partly drawn) [compound 65],GI50,K-562; read-out: K562 GI50,1.22 nM
same,CC50,K-562; read-out: K562 LC50,7800 nM
same,IC (TGI),K-562; read-out: K562 TGI,13.9 nM
same,GI50,SK-BR-3; read-out: SK-BR3 GI50,2.97 nM
same,CC50,SK-BR-3; read-out: SK-BR3 LC50,209 nM
same,IC (TGI),SK-BR-3; read-out: SK-BR3 TGI,7.66 nM
same,GI50,DU-145; read-out: DU145 GI50,2.63 nM
same,CC50,DU-145; read-out: DU145 LC50,4770 nM
same,IC (TGI),DU-145; read-out: DU145 TGI,6.45 nM
same,GI50,LoVo-Dox; read-out: LOVO-DOX GI50,399 nM
same,CC50,LoVo-Dox; read-out: LOVO-DOX LC50,13200 nM
same,IC (TGI),LoVo-Dox; read-out: LOVO-DOX TGI,1050 nM
same,GI50,HeLa-APL; read-out: HELA-APL GI50,2 nM
same,CC50,HeLa-APL; read-out: HELA-APL LC50,8.46 nM
same,IC (TGI),HeLa-APL; read-out: HELA-APL TGI,4.1 nM
same,GI50,IGROV-ET; read-out: IGROV-ET GI50,76 nM
same,CC50,IGROV-ET; read-out: IGROV-ET LC50,3300 nM
same,IC (TGI),IGROV-ET; read-out: IGROV-ET TGI,406 nM
same,GI50,HeLa; read-out: HELA GI50,2.34 nM
same,CC50,HeLa; read-out: HELA LC50,9.99 nM
same,IC (TGI),HeLa; read-out: HELA TGI,4.82 nM
same,GI50,IGROV-1; read-out: IGROV GI50,4.07 nM
same,CC50,IGROV-1; read-out: IGROV LC50,2990 nM
same,IC (TGI),IGROV-1; read-out: IGROV TGI,11.4 nM
same,GI50,PANC-1; read-out: PANC-1 GI50,3.99 nM
same,CC50,PANC-1; read-out: PANC-1 LC50,4250 nM
same,IC (TGI),PANC-1; read-out: PANC-1 TGI,12.3 nM
same,GI50,LNCaP; read-out: LNCAP GI50,0.875 nM
same,CC50,LNCaP; read-out: LNCAP LC50,6.16 nM
same,IC (TGI),LNCaP; read-out: LNCAP TGI,2.54 nM
same,GI50,SK-MEL-28; read-out: MEL-28 GI50,3.78 nM
same,CC50,SK-MEL-28; read-out: MEL-28 LC50,42 nM
same,IC (TGI),SK-MEL-28; read-out: MEL-28 TGI,10.8 nM
same,GI50,HT-29; read-out: HT29 GI50,4.51 nM
same,CC50,HT-29; read-out: HT29 LC50,13200 nM
same,IC (TGI),HT-29; read-out: HT29 TGI,196 nM
same,GI50,A-549; read-out: A549 GI50,22.9 nM
same,CC50,A-549; read-out: A549 LC50,313 nM
same,IC (TGI),A-549; read-out: A549 TGI,56 nM
same,GI50,LoVo; read-out: LOVO GI50,6.78 nM
same,CC50,LoVo; read-out: LOVO LC50,2960 nM
same,IC (TGI),LoVo; read-out: LOVO TGI,36.9 nM
